From the supplement of paper PMC10307832

Legend:
Test in all cases: relative viability (nuclei count vs DMSO), 5 days (fraction); higher = more cells survive
[1] = compound: CC1=C(C(=NN1)C)CC2=C(C3=C(S2)N(C(=O)N(C3=O)C)CC(C)C)C(=O)N4C[C@@H](CO4)O + CS(=O)(=O)N1CCN(Cc2cc3nc(-c4cccc5[nH]ncc45)nc(N4CCOCC4)c3s2)CC1 [Pictilisib] (partner 1 µM)
Outline: (§1)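 Relative viability equals treated-well nuclei counts divided by vehicle-well nuclei counts. Counts came from 4× images of lung cancer cell lines grown in 1536-well plates for 5 days after pin-tool dosing on the day after seeding. Dosing used one drug alone or a fixed anchor-drug dose plus five library-drug doses (not always all listed) in √10 steps, and values are medians of duplicate plates.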

IDH-C35 + OSI-027 = compound: Cc1ccccc1C(C(=O)NC1CCCCC1)N(C(=O)Cn1ccnc1C)c1cccc(F)c1 [IDH-C35] + COc1cccc2cc(-c3nc([C@H]4CC[C@H](C(=O)O)CC4)n4ncnc(N)c34)[nH]c12 [OSI-027] (partner 0.5 µM)
Outline: as §1

[2] = compound: CC1=C(C(=NN1)C)CC2=C(C3=C(S2)N(C(=O)N(C3=O)C)CC(C)C)C(=O)N4C[C@@H](CO4)O + CCNC(=O)c1noc(-c2cc(C(C)C)c(O)cc2O)c1-c1ccc(CN2CCOCC2)cc1 [Luminespib] (partner 0.01 µM)
Outline: as §1

IDH-C35 + AZD7762 = compound: Cc1ccccc1C(C(=O)NC1CCCCC1)N(C(=O)Cn1ccnc1C)c1cccc(F)c1 [IDH-C35] + NC(=O)Nc1cc(-c2cccc(F)c2)sc1C(=O)N[C@H]1CCCNC1 [AZD7762] (partner 0.2 µM)
Outline: as §1

Row | Cell Line | relative viability ([1]; first compound 0.0025 µM) | relative viability ([1]; first compound 0.007906 µM) | relative viability ([1]; first compound 0.025 µM) | relative viability ([1]; first compound 0.07906 µM) | relative viability ([1]; first compound 0.25 µM) | relative viability (IDH-C35 + OSI-027; first compound 0.08 µM) | relative viability (IDH-C35 + OSI-027; first compound 0.253 µM) | relative viability (IDH-C35 + OSI-027; first compound 0.8 µM) | relative viability (IDH-C35 + OSI-027; first compound 2.53 µM) | relative viability (IDH-C35 + OSI-027; first compound 8 µM) | relative viability ([2]; first compound 0.0025 µM) | relative viability ([2]; first compound 0.007906 µM) | relative viability ([2]; first compound 0.025 µM) | relative viability ([2]; first compound 0.07906 µM) | relative viability ([2]; first compound 0.25 µM) | relative viability (IDH-C35 + AZD7762; first compound 0.08 µM) | relative viability (IDH-C35 + AZD7762; first compound 0.253 µM) | relative viability (IDH-C35 + AZD7762; first compound 0.8 µM) | relative viability (IDH-C35 + AZD7762; first compound 2.53 µM) | relative viability (IDH-C35 + AZD7762; first compound 8 µM)
1 | 201T | 0.708 | 0.704 | 0.688 | 0.653 | 0.679 | 0.845 | 0.75 | 0.681 | 0.802 | 0.777 | 1.04 | 1.1 | 1.05 | 1.04 | 1.05 | 0.62 | 0.638 | 0.615 | 0.514 | 0.603
2 | A549 | 0.391 | 0.505 | 0.538 | 0.52 | 0.54 |  |  |  |  |  |  |  |  |  |  |  |  |  |  | 
3 | A-427 | 0.733 | 0.685 | 0.679 | 0.843 | 0.826 | 0.477 | 0.49 | 0.463 | 0.471 | 0.448 | 0.949 | 1.19 | 0.921 | 1.03 | 0.957 | 0.709 | 0.725 | 0.687 | 0.679 | 0.707
4 | ABC-1 | 0.874 | 0.844 | 0.693 | 0.948 | 0.737 | 0.528 | 0.516 | 0.582 | 0.531 | 0.441 |  | 0.606 |  | 0.349 | 0.531 | 0.779 | 0.874 | 0.739 | 0.744 | 1.01
5 | BEN | 0.557 | 0.512 | 0.435 | 0.593 | 0.556 | 0.308 | 0.318 | 0.298 | 0.328 | 0.261 | 0.235 | 0.383 | 0.242 | 0.335 | 0.325 | 0.572 | 0.772 | 0.679 | 0.586 | 0.683
6 | CAL-12T | 0.502 | 0.57 |  | 0.588 | 0.518 | 0.642 | 0.759 | 0.667 | 0.704 | 0.489 | 0.393 | 0.895 | 0.315 | 0.303 | 0.404 | 0.545 | 0.569 | 0.686 | 0.589 | 0.577
7 | COR-L23 | 0.806 | 0.794 | 0.522 | 0.589 | 0.635 | 0.843 | 0.696 | 0.861 | 0.829 | 0.731 | 0.756 | 0.744 | 0.666 | 0.549 | 0.765 |  |  |  |  | 
8 | COR-L 105 | 0.406 | 0.445 | 0.376 | 0.398 | 0.356 | 0.588 | 0.771 | 0.735 | 0.727 | 0.628 | 0.739 | 0.807 | 0.533 | 0.638 | 0.617 |  |  |  |  | 
9 | Calu-6 | 1.01 | 0.939 | 0.887 | 0.949 | 0.981 |  |  |  |  |  |  |  |  |  |  |  |  |  |  | 
10 | ChaGo-K-1 | 0.794 | 0.608 |  | 1.01 | 1.04 | 0.604 | 0.523 | 0.529 | 0.637 | 0.572 | 0.671 | 0.597 | 0.583 | 0.677 | 0.546 | 0.97 | 0.928 | 0.899 | 0.819 | 0.818
11 | EBC-1 | 0.396 | 0.333 | 0.447 | 0.493 | 0.444 |  |  |  |  |  |  |  |  |  |  |  |  |  |  | 
12 | EKVX | 0.544 | 0.485 | 0.457 | 0.449 | 0.42 | 0.752 | 0.641 | 0.646 | 0.657 | 0.68 | 0.948 | 0.955 | 0.852 | 0.764 | 0.928 | 0.75 | 0.819 | 0.725 | 0.803 | 0.756
13 | EMC-BAC-2 | 0.512 | 0.573 | 0.521 | 0.505 | 0.594 | 0.364 | 0.366 | 0.383 | 0.39 | 0.385 | 1.17 | 1.23 | 1.2 | 1.32 | 1.29 | 1.1 | 1.12 | 1.16 | 1.18 | 1.16
14 | EPLC-272H | 0.317 | 0.293 | 0.29 | 0.314 | 0.384 | 0.26 | 0.282 | 0.268 | 0.273 | 0.257 | 0.738 | 0.197 | 0.235 | 0.498 | 0.417 | 0.387 | 0.266 | 0.215 |  | 0.305
15 | H3255 | 0.523 | 0.473 | 0.43 | 0.45 | 0.62 | 0.554 | 0.534 | 0.581 | 0.661 | 0.647 | 0.953 | 1.04 | 0.861 | 0.944 | 0.887 | 0.814 | 0.947 | 0.924 | 0.88 | 0.829
16 | HARA | 0.473 | 0.372 | 0.369 | 0.506 | 0.283 | 0.607 | 0.735 | 0.484 |  | 0.405 | 0.847 | 1.12 | 0.726 | 0.543 | 0.933 | 0.362 | 0.422 | 0.318 | 0.22 | 0.383
17 | HCC-15 | 0.76 | 0.911 | 0.846 | 0.782 | 0.856 | 0.632 | 0.656 | 0.614 |  | 0.604 | 0.378 | 0.518 | 0.236 | 0.43 | 0.337 | 1.33 | 1.1 | 1.08 |  | 1.35
18 | HCC-44 | 0.615 | 0.689 | 0.616 | 0.6 | 0.616 | 0.538 | 0.641 | 0.595 | 0.61 | 0.625 | 0.97 | 1.11 | 1.03 | 0.958 | 1.38 | 1 | 0.982 | 0.999 | 1.03 | 1.01
19 | HCC-78 | 0.217 | 0.218 | 0.172 | 0.169 | 0.194 | 0.349 | 0.362 | 0.633 | 0.388 | 0.332 |  |  |  |  |  | 0.584 | 0.66 | 0.615 | 0.738 | 0.732
